Source: US20130217776A1, “Combination of a Serotonin Reuptake Inhibitor and Agomelatine” (H. Lundbeck A/S, priority 2003, published 2013)

Tested on: serotonin in terminal areas
Assay: microdialysis experiments (level of serotonin in terminal areas)
Type: in vivo
Settings: administration of agomelatine alone
Source text: Administration of agomelatine alone causes no increase in serotonin levels as measured in microdialysis experiments.

SMILES: COc1ccc2cccc(CCNC(C)=O)c2c1 [agomelatine]
- serotonin levels as measured in microdialysis experiments: no increase
